Data reported in patent US9738634B2, “Heterocyclic amide compound and herbicide” (SYNGENTA PARTICIPATIONS AG, priority 2013, dated 2017).
Values belong to the compound of their own block, whether it stands above or below them.

Assays:
corn [1] = test: Test Example 3: soil treatment, effect on crop; c: corn; type: in vivo; conditions: treatment dosage 320 g/ha
In short: (§1)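 Crop and weed responses were judged three weeks after a uniform surface spray of the water-diluted emulsion at the given g/ha rate. Seeds sat beneath about 1.5 cm of sterilized diluvial soil, and boxes stood in a greenhouse at 25 to 30° C.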

corn [2] = test: Test Example 4: foliar treatment, effect on crop; c: corn; type: in vivo; conditions: treatment dosage 320 g/ha
In short: (§2)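 Seeds are spot-sown into sterilized diluvial soil and covered with about 1.5 cm of soil. After 14 days' greenhouse growth at 25 to 30° C, plants are sprayed on stems and leaves with diluted emulsion at the stated g/ha rate, then scored at 3 weeks.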

fig-leafed goosefoot [3] = test: Test Example 3: weedkilling efficacy through soil treatment; M: fig-leafed goosefoot; type: in vivo; conditions: treatment dosage 320 g/ha
In short: as §1

common wind-grass [4] = test: Test Example 3: weedkilling efficacy through soil treatment; J: common wind-grass; type: in vivo; conditions: treatment dosage 320 g/ha
In short: as §1

bulrush [5] = test: Test Example 2: weedkilling efficacy, growth period weed treatment in the submerged state; B: bulrush; type: in vivo; conditions: treatment dosage 320 g/ha
In short: (§3)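 Seedlings at 1-2 leaves in 4 cm-deep submerged alluvial soil received emulsion formulations on the water surface, dosed per hectare; effects were judged 3 weeks on.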

barnyard grass [6] = test: Test Example 1: weedkilling efficacy, preemergent weed treatment in the submerged state; A: barnyard grass; type: in vivo; conditions: treatment dosage 320 g/ha
In short: (§4)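 Pre-emergence paddy test: weed seeds sown in submerged alluvial soil (4 cm water), 2.5-leaf rice transplanted, water-diluted emulsion applied to water surface at sowing at stated g/ha. Scored at 3 weeks, greenhouse 25–30 °C.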

Italian ryegrass [7] = test: Test Example 4: weedkilling efficacy by foliar treatment; I: Italian ryegrass; type: in vivo; conditions: treatment dosage 320 g/ha
In short: as §2

green foxtail [8] = test: Test Example 3: weedkilling efficacy through soil treatment; E: green foxtail; type: in vivo; conditions: treatment dosage 320 g/ha
In short: as §1

barnyard grass [9] = test: Test Example 2: weedkilling efficacy, growth period weed treatment in the submerged state; A: barnyard grass; type: in vivo; conditions: treatment dosage 320 g/ha
In short: as §3

wild oat [10] = test: Test Example 3: weedkilling efficacy through soil treatment; G: wild oat; type: in vivo; conditions: treatment dosage 320 g/ha
In short: as §1

catchweed [11] = test: Test Example 4: weedkilling efficacy by foliar treatment; O: catchweed; type: in vivo; conditions: treatment dosage 320 g/ha
In short: as §2

black-grass [12] = test: Test Example 3: weedkilling efficacy through soil treatment; H: black-grass; type: in vivo; conditions: treatment dosage 320 g/ha
In short: as §1

oval-leafed pondweed [13] = test: Test Example 1: weedkilling efficacy, preemergent weed treatment in the submerged state; C: oval-leafed pondweed; type: in vivo; conditions: treatment dosage 320 g/ha
In short: as §4

crabgrass [14] = test: Test Example 4: weedkilling efficacy by foliar treatment; D: crabgrass; type: in vivo; conditions: treatment dosage 320 g/ha
In short: as §2

directly sown rice [15] = test: Test Example 3: soil treatment, effect on crop; b: directly sown rice; type: in vivo; conditions: treatment dosage 320 g/ha
In short: as §1

Indian mallow [16] = test: Test Example 3: weedkilling efficacy through soil treatment; K: Indian mallow; type: in vivo; conditions: treatment dosage 320 g/ha
In short: as §1

soybean [17] = test: Test Example 3: soil treatment, effect on crop; d: soybean; type: in vivo; conditions: treatment dosage 320 g/ha
In short: as §1

wild oat [18] = test: Test Example 4: weedkilling efficacy by foliar treatment; G: wild oat; type: in vivo; conditions: treatment dosage 320 g/ha
In short: as §2

redroot pigweed [19] = test: Test Example 3: weedkilling efficacy through soil treatment; L: redroot pigweed; type: in vivo; conditions: treatment dosage 320 g/ha
In short: as §1

bulrush [20] = test: Test Example 1: weedkilling efficacy, preemergent weed treatment in the submerged state; B: bulrush; type: in vivo; conditions: treatment dosage 320 g/ha
In short: as §4

common wind-grass [21] = test: Test Example 4: weedkilling efficacy by foliar treatment; J: common wind-grass; type: in vivo; conditions: treatment dosage 320 g/ha
In short: as §2

wheat [22] = test: Test Example 4: foliar treatment, effect on crop; e: wheat; type: in vivo; conditions: treatment dosage 320 g/ha
In short: as §2

Indian mallow [23] = test: Test Example 4: weedkilling efficacy by foliar treatment; K: Indian mallow; type: in vivo; conditions: treatment dosage 320 g/ha
In short: as §2

chickweed [24] = test: Test Example 4: weedkilling efficacy by foliar treatment; N: chickweed; type: in vivo; conditions: treatment dosage 320 g/ha
In short: as §2

green foxtail [25] = test: Test Example 4: weedkilling efficacy by foliar treatment; E: green foxtail; type: in vivo; conditions: treatment dosage 320 g/ha
In short: as §2

crabgrass [26] = test: Test Example 3: weedkilling efficacy through soil treatment; D: crabgrass; type: in vivo; conditions: treatment dosage 320 g/ha
In short: as §1

birds-eye speedwell [27] = test: Test Example 4: weedkilling efficacy by foliar treatment; p: birds-eye speedwell; type: in vivo; conditions: treatment dosage 320 g/ha
In short: as §2

fig-leafed goosefoot [28] = test: Test Example 4: weedkilling efficacy by foliar treatment; M: fig-leafed goosefoot; type: in vivo; conditions: treatment dosage 320 g/ha
In short: as §2

beet [29] = test: Test Example 3: soil treatment, effect on crop; f: beet; type: in vivo; conditions: treatment dosage 320 g/ha
In short: as §1

chickweed [30] = test: Test Example 3: weedkilling efficacy through soil treatment; N: chickweed; type: in vivo; conditions: treatment dosage 320 g/ha
In short: as §1

rapeseed [31] = test: Test Example 4: foliar treatment, effect on crop; g: rapeseed; type: in vivo; conditions: treatment dosage 320 g/ha
In short: as §2

redroot pigweed [32] = test: Test Example 4: weedkilling efficacy by foliar treatment; L: redroot pigweed; type: in vivo; conditions: treatment dosage 320 g/ha
In short: as §2

wheat [33] = test: Test Example 3: soil treatment, effect on crop; e: wheat; type: in vivo; conditions: treatment dosage 320 g/ha
In short: as §1

rapeseed [34] = test: Test Example 3: soil treatment, effect on crop; g: rapeseed; type: in vivo; conditions: treatment dosage 320 g/ha
In short: as §1

Italian ryegrass [35] = test: Test Example 3: weedkilling efficacy through soil treatment; I: Italian ryegrass; type: in vivo; conditions: treatment dosage 320 g/ha
In short: as §1

black-grass [36] = test: Test Example 4: weedkilling efficacy by foliar treatment; H: black-grass; type: in vivo; conditions: treatment dosage 320 g/ha
In short: as §2

directly sown rice [37] = test: Test Example 4: foliar treatment, effect on crop; b: directly sown rice; type: in vivo; conditions: treatment dosage 320 g/ha
In short: as §2

transplanted rice = test: Test Example 1: preemergent weed treatment in the submerged state, effect on crop; a: transplanted rice; type: in vivo; conditions: treatment dosage 320 g/ha
In short: as §4

barnyard grass [38] = test: Test Example 4: weedkilling efficacy by foliar treatment; F: barnyard grass; type: in vivo; conditions: treatment dosage 320 g/ha
In short: as §2

catchweed [39] = test: Test Example 3: weedkilling efficacy through soil treatment; O: catchweed; type: in vivo; conditions: treatment dosage 320 g/ha
In short: as §1

birds-eye speedwell [40] = test: Test Example 3: weedkilling efficacy through soil treatment; p: birds-eye speedwell; type: in vivo; conditions: treatment dosage 320 g/ha
In short: as §1

beet [41] = test: Test Example 4: foliar treatment, effect on crop; f: beet; type: in vivo; conditions: treatment dosage 320 g/ha
In short: as §2

soybean [42] = test: Test Example 4: foliar treatment, effect on crop; d: soybean; type: in vivo; conditions: treatment dosage 320 g/ha
In short: as §2

barnyard grass [43] = test: Test Example 3: weedkilling efficacy through soil treatment; F: barnyard grass; type: in vivo; conditions: treatment dosage 320 g/ha
In short: as §1

oval-leafed pondweed [44] = test: Test Example 2: weedkilling efficacy, growth period weed treatment in the submerged state; C: oval-leafed pondweed; type: in vivo; conditions: treatment dosage 320 g/ha
In short: as §3

melting point: 163 to 164 °C
SMILES: CCCN(C(=O)C(C)(C)N1COCN(c2ccccc2)C1=O)c1cc(C(F)(F)F)ccn1 [A-5-05, 2-methyl-2-(4-oxo-5-phenyl-1,3,5-oxadiazinan-3-yl)-N-propyl-N-[4-(trifluoromethyl)-pyridin-2-yl]propionamide]

melting point: 171 to 172 °C
SMILES: CCC1N=CSN1NC(=O)C(C)(C)N1COC(C)=C(c2ccsc2)C1=O (centres unmarked) [B-1-02, N-(3-ethyl-1,2,4-thiadiazol-2-yl)-2-methyl-2-[6-methyl-4-oxo-5-(thiophen-3-yl)-2H-1,3-oxazin-3(4H)-yl]propionamide]

SMILES: CC1=C(c2ccccc2)C(=O)N(C(C)(C)C(=O)Nc2cc(C#N)ccn2)CO1 [B-2-62]
c (corn) effect on crop grade (corn [1]): 0 (weed kill ratio 5% or less (practically no effect)) | c (corn) effect on crop grade (corn [2]): 0 (weed kill ratio 5% or less (practically no effect)) | M (fig-leafed goosefoot) weedkilling efficacy grade (fig-leafed goosefoot [3]): 3 (weed kill ratio 40% or more, less than 70%) | J (common wind-grass) weedkilling efficacy grade (common wind-grass [4]): 5 (weed kill ratio 90% or more, (practically complete withering)) | B (bulrush) weedkilling efficacy grade (bulrush [5]): 3 (weed kill ratio 40% or more, less than 70%) | A (barnyard grass) weedkilling efficacy grade (barnyard grass [6]): 5 (weed kill ratio 90% or more, (practically complete withering)) | I (Italian ryegrass) weedkilling efficacy grade (Italian ryegrass [7]): 2 (weed kill ratio 20% or more, less than 40%) | E (green foxtail) weedkilling efficacy grade (green foxtail [8]): 4 (weed kill ratio 70% or more, less than 90%) | A (barnyard grass) weedkilling efficacy grade (barnyard grass [9]): 4 (weed kill ratio 70% or more, less than 90%) | G (wild oat) weedkilling efficacy grade (wild oat [10]): 3 (weed kill ratio 40% or more, less than 70%) | O (catchweed) weedkilling efficacy grade (catchweed [11]): 1 (weed kill ratio 5% or more, less than 20%) | H (black-grass) weedkilling efficacy grade (black-grass [12]): 3 (weed kill ratio 40% or more, less than 70%) | C (oval-leafed pondweed) weedkilling efficacy grade (oval-leafed pondweed [13]): 5 (weed kill ratio 90% or more, (practically complete withering)) | D (crabgrass) weedkilling efficacy grade (crabgrass [14]): 3 (weed kill ratio 40% or more, less than 70%) | b (directly sown rice) effect on crop grade (directly sown rice [15]): 0 (weed kill ratio 5% or less (practically no effect)) | K (Indian mallow) weedkilling efficacy grade (Indian mallow [16]): 0 (weed kill ratio 5% or less (practically no effect)) | d (soybean) effect on crop grade (soybean [17]): 0 (weed kill ratio 5% or less (practically no effect)) | G (wild oat) weedkilling efficacy grade (wild oat [18]): 1 (weed kill ratio 5% or more, less than 20%) | L (redroot pigweed) weedkilling efficacy grade (redroot pigweed [19]): 2 (weed kill ratio 20% or more, less than 40%) | B (bulrush) weedkilling efficacy grade (bulrush [20]): 5 (weed kill ratio 90% or more, (practically complete withering)) | J (common wind-grass) weedkilling efficacy grade (common wind-grass [21]): 4 (weed kill ratio 70% or more, less than 90%) | e (wheat) effect on crop grade (wheat [22]): 0 (weed kill ratio 5% or less (practically no effect)) | K (Indian mallow) weedkilling efficacy grade (Indian mallow [23]): 4 (weed kill ratio 70% or more, less than 90%) | N (chickweed) weedkilling efficacy grade (chickweed [24]): 2 (weed kill ratio 20% or more, less than 40%) | E (green foxtail) weedkilling efficacy grade (green foxtail [25]): 3 (weed kill ratio 40% or more, less than 70%) | D (crabgrass) weedkilling efficacy grade (crabgrass [26]): 4 (weed kill ratio 70% or more, less than 90%) | P (birds-eye speedwell) weedkilling efficacy grade (birds-eye speedwell [27]): 4 (weed kill ratio 70% or more, less than 90%) | M (fig-leafed goosefoot) weedkilling efficacy grade (fig-leafed goosefoot [28]): 3 (weed kill ratio 40% or more, less than 70%) | f (beet) effect on crop grade (beet [29]): 0 (weed kill ratio 5% or less (practically no effect)) | N (chickweed) weedkilling efficacy grade (chickweed [30]): 3 (weed kill ratio 40% or more, less than 70%) | g (rapeseed) effect on crop grade (rapeseed [31]): 4 (weed kill ratio 70% or more, less than 90%) | L (redroot pigweed) weedkilling efficacy grade (redroot pigweed [32]): 4 (weed kill ratio 70% or more, less than 90%) | e (wheat) effect on crop grade (wheat [33]): 0 (weed kill ratio 5% or less (practically no effect)) | g (rapeseed) effect on crop grade (rapeseed [34]): 0 (weed kill ratio 5% or less (practically no effect)) | I (Italian ryegrass) weedkilling efficacy grade (Italian ryegrass [35]): 4 (weed kill ratio 70% or more, less than 90%) | H (black-grass) weedkilling efficacy grade (black-grass [36]): 3 (weed kill ratio 40% or more, less than 70%) | b (directly sown rice) effect on crop grade (directly sown rice [37]): 0 (weed kill ratio 5% or less (practically no effect)) | a (transplanted rice) effect on crop grade (transplanted rice): 1 (weed kill ratio 5% or more, less than 20%) | F (barnyard grass) weedkilling efficacy grade (barnyard grass [38]): 3 (weed kill ratio 40% or more, less than 70%) | O (catchweed) weedkilling efficacy grade (catchweed [39]): 0 (weed kill ratio 5% or less (practically no effect)) | P (birds-eye speedwell) weedkilling efficacy grade (birds-eye speedwell [40]): 4 (weed kill ratio 70% or more, less than 90%) | f (beet) effect on crop grade (beet [41]): 0 (weed kill ratio 5% or less (practically no effect)) | d (soybean) effect on crop grade (soybean [42]): 0 (weed kill ratio 5% or less (practically no effect)) | F (barnyard grass) weedkilling efficacy grade (barnyard grass [43]): 3 (weed kill ratio 40% or more, less than 70%) | C (oval-leafed pondweed) weedkilling efficacy grade (oval-leafed pondweed [44]): 5 (weed kill ratio 90% or more, (practically complete withering))
